From patent US12077503B2, “Substituted cyclic amides and their use as herbicides” (FMC CORPORATION, priority 2015, dated 2024)

Legend:
Format in all cases: in vivo
[1] = tested on: giant foxtail (Setaria faberii); assay: Test A postemergence; settings: Setaria faberi, post-emergence, 240 h, read-out: Plant response rating, Foxtail, Giant
How it was run: (§1)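 Greenhouse, ~10 d after spray; visual injury vs untreated controls, 0 = no effect, 100 = complete control. Preemergence: directed soil spray over planted seeds. Postemergence: plants 2–10 cm, 1–2 leaf stage. Loam/sand blend. Compound in non-phytotoxic solvent with surfactant.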

[2] = tested on: blackgrass (Alopecurus myosuroides); assay: Test A postemergence; settings: Alopecurus myosuroides, post-emergence, 240 h, read-out: Plant response rating, Blackgrass
How it was run: as §1

[3] = tested on: pigweed (Amaranthus retroflexus); assay: Test A postemergence; settings: Amaranthus retroflexus, post-emergence, 240 h, read-out: Plant response rating, Pigweed
How it was run: as §1

corn (Zea mays) = assay: Test A postemergence; settings: Zea mays, post-emergence, 240 h
How it was run: as §1

[4] = tested on: ragweed (common ragweed, Ambrosia elatior); assay: Test A postemergence; settings: Ambrosia artemisiifolia, post-emergence, 240 h, read-out: Plant response rating, Ragweed
How it was run: as §1

[5] = tested on: barnyardgrass (Echinochloa crus-galli); assay: Test A postemergence; settings: Echinochloa crus-galli, post-emergence, 240 h, read-out: Plant response rating, Barnyardgrass
How it was run: as §1

[6] = tested on: wheat (Triticum aestivum); assay: Test A postemergence; settings: Triticum aestivum, post-emergence, 240 h, Postemergence, 31 g ai/ha; visual injury after approx. 10 d; 0 to 100 scale, 0 no effect, 100 complete control; read-out: Plant response rating, Wheat
How it was run: as §1

Kochia (Kochia scoparia) [7] = assay: Test A postemergence; settings: Bassia scoparia, post-emergence, 240 h, read-out: Plant response rating, Kochia
How it was run: as §1

[8] = tested on: Galium (catchweed bedstraw, Galium aparine); assay: Test A postemergence; settings: Galium, post-emergence, 240 h, read-out: Plant response rating, Galium
How it was run: as §1

[9] = tested on: giant foxtail (Setaria faberii); assay: Test A preemergence; settings: Setaria faberi, pre-emergence, 240 h, read-out: Plant response rating, Foxtail, Giant
How it was run: as §1

[10] = tested on: ryegrass, Italian (Italian ryegrass, Lolium multiflorum); assay: Test A preemergence; settings: Lolium multiflorum, pre-emergence, 240 h, read-out: Plant response rating, Ryegrass, Italian
How it was run: as §1

[11] = tested on: pigweed (Amaranthus retroflexus); assay: Test A preemergence; settings: Amaranthus retroflexus, pre-emergence, 240 h, read-out: Plant response rating, Pigweed
[12] = tested on: ragweed (common ragweed, Ambrosia elatior); assay: Test A preemergence; settings: Ambrosia artemisiifolia, pre-emergence, 240 h, read-out: Plant response rating, Ragweed
How it was run: as §1

[13] = tested on: barnyardgrass (Echinochloa crus-galli); assay: Test A preemergence; settings: Echinochloa crus-galli, pre-emergence, 240 h, read-out: Plant response rating, Barnyardgrass
How it was run: as §1

Kochia (Kochia scoparia) [14] = assay: Test A preemergence; settings: Bassia scoparia, pre-emergence, 240 h, read-out: Plant response rating, Kochia
How it was run: as §1

[15] = 125 g ai/ha, postemergence, visual injury after approximately 10 d, 0 to 100 scale (0 no effect, 100 complete control)
[16] = Postemergence, 31 g ai/ha, visual injury after approx. 10 d, 0 to 100 scale, 0 no effect, 100 complete control
[17] = 125 g ai/ha, preemergence, visual rating after approx. 10 d, 0 to 100 scale where 0 is no effect and 100 is complete control
[18] = Preemergence, 31 g ai/ha, 0 to 100 scale (0 no effect, 100 complete control)

Molecule `Cc1cc(F)cc([C@H]2CN(C)C(=O)[C@@H]2C(=O)Nc2cccc(F)c2C#N)c1` [Compound 800] has a pest or weed control at 125 g/ha [1, 15] of 80%, a pest or weed control at 31 g/ha [1, 16] of 80% and a pest or weed control at 125 g/ha [2, 15] of 20%. The pest or weed control at 31 g/ha [2, 16] was 0%, the pest or weed control at 125 g/ha [3, 15] was 40% and the pest or weed control at 31 g/ha [3, 16] was 20%. The Corn plant response rating (crop injury, 0 = no effect, 100 = complete kill) at 125 g/ha (corn (Zea mays); [15]) was 20%, the Corn plant response rating (crop injury, 0 = no effect, 100 = complete kill) at 31 g/ha (corn (Zea mays); [16]) was 0% and the pest or weed control at 125 g/ha [4, 15] was 0%. It also gave a pest or weed control at 31 g/ha [4, 16] of 0%, a pest or weed control at 125 g/ha [5, 15] of 80% and a pest or weed control at 31 g/ha [5, 16] of 80%. It also gave a plant injury at 31 g/ha [6] of 0%, a pest or weed control at 125 g/ha (Kochia (Kochia scoparia) [7]; [15]) of 0% and a pest or weed control at 31 g/ha (Kochia (Kochia scoparia) [7]; [16]) of 0%. The pest or weed control at 125 g/ha [8, 15] was 30%, the pest or weed control at 31 g/ha [8, 16] was 0% and the pest or weed control at 125 g/ha [9, 17] was 90%. For the same molecule, the pest or weed control at 31 g/ha [9, 18] was 80%, the pest or weed control at 125 g/ha [10, 17] was 40% and the pest or weed control at 31 g/ha [10, 18] was 0%. For the same molecule, the pest or weed control at 125 g/ha [11, 17] was 20%, the pest or weed control at 31 g/ha [11, 18] was 0% and the pest or weed control at 125 g/ha [12, 17] was 0%. For the same molecule, the pest or weed control at 31 g/ha [12, 18] was 0%, the pest or weed control at 125 g/ha [13, 17] was 90% and the pest or weed control at 31 g/ha [13, 18] was 80%. It also gave a pest or weed control at 125 g/ha (Kochia (Kochia scoparia) [14]; [17]) of 0% and a pest or weed control at 31 g/ha (Kochia (Kochia scoparia) [14]; [18]) of 0%.
